In PubChem BioAssay (NCI) one finds TGI and GI50 data, which are given here for twelve compounds.

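Assay format: 96-well plates, 48-hour exposure. Abbreviation: GI50, concentration required for 50% inhibition of growth. TGI marks complete inhibition of growth.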 Where only a bound is given, the exact number is not on record here.

What all share (assay): growth of human tumour cells (NCI), 48 h
The subject of assay [1] is A498 renal.
The subject of assay [2] is HCT-116 colon.
The test system of assay [3] is IGROV1 ovarian.
Assay [4] has as its system K-562 leukemia.
Assay [5] deals with OVCAR-4 ovarian.
The test system of assay [6] is OVCAR-8 ovarian.
Assay [7] relates to SF-295 CNS.
The test system of assay [8] is SF-539 CNS.
Assay [9] concerns SW-620 colon.
For assay [10], the system named is NCI-H23 lung.

As for `Nc1nc(-c2ccccc2)c(CC(=O)O)s1`, the TGI in assay [1], in assay [2], in [3], in assay [4], in assay [5] and in assay [6] was > 100 µM each time. Also, the TGI in assay [7], in assay [8] and in assay [9] was > 100 µM in each case.

As to `COc1cc2c(c3c1c(=O)c1ccccc1n3C)C=C([N+](=O)[O-])C(C)(C)O2`, the TGI in assay [1] was 12.5 µM; in assay [2], > 100 µM; in assay [3], > 100 µM; in assay [4] it was > 100 µM; in assay [10], > 100 µM; in assay [5], > 100 µM. Further, the TGI in assay [6], in assay [7] and in assay [8] was > 100 µM each time.

For `O=C1c2cccc3c(N4CCOCC4)ccc(c23)C(=O)N1CCN1CCN(CCCCCN2CCN(CCN3C(=O)c4cccc5c(N6CCOCC6)ccc(c45)C3=O)CC2)CC1`, the GI50 was > 100 µM in assay [1]; 33.8 µM in [2]; 36 µM in assay [4]; 99.8 µM in assay [10]; > 100 µM in assay [5]; 91 µM in [6]. For the same compound, the figures for the GI50 in assay [7], in assay [8] and in [9] were 72 µM, > 100 µM and 70.8 µM, respectively. Besides, the TGI in assay [1], in assay [2], in [4], in assay [10], in assay [5] and in assay [6] was > 100 µM in each case. In addition, the TGI in assay [7], in [8] and in [9] was > 100 µM throughout.

`Cc1ccc(-n2nc(C(OC3OC(CO)C(O)C(O)C3O)C(O)CO)c3nc4cc(C)c(C)cc4nc32)cc1` (configuration not stated): the TGI in assay [1], in [2], in [4], in assay [10], in [5] and in assay [6] was > 100 µM throughout. The TGI in assay [7] and in assay [8] was > 100 µM throughout.

As to `C#COc1cccc(Nc2ncnc3cc(NC(=O)[C@@H](C)Cl)ccc23)c1`, the GI50 in assay [1] was 7.16 µM; in [2], 2.98 µM; in [3], 5.29 µM; in assay [4] it was 2.56 µM; in [10], 17.2 µM; in assay [6], 18.1 µM. In addition, the GI50 in assay [7] was 8.22 µM; in assay [8] it was 8.61 µM; in assay [9], 3.95 µM. The TGI in assay [1] was 49.9 µM; in [2], > 62.5 µM; in [3], > 62.5 µM; in [4] it was > 62.5 µM; in assay [10], > 62.5 µM; in assay [6] it was > 62.5 µM. Further, the TGI is 61.2 µM in assay [7], 46 µM in assay [8] and > 62.5 µM in assay [9].

Take `CCN(CC)CCCC(Nc1c2ccc(Cl)cc2nc2ccc(OC)cc12)c1ccc(Cl)cc1` (configuration not stated): the GI50 in assay [1] was 1.26 µM; in [4], 0.221 µM; in assay [10], 1.43 µM; in assay [5] it was 1.13 µM; in assay [6], 1.05 µM; in [7], 1.3 µM. Further, the GI50 was 1.56 µM in assay [8] and 1.37 µM in assay [9]. In addition, the TGI in [1] came to 2.64 µM; in assay [4], 0.432 µM; in assay [10] it was 2.98 µM; in assay [5], 3.17 µM; in assay [6] it was 2.47 µM; in [7] it was 2.77 µM. In addition, the TGI in [8] came out at 3.1 µM; in [9], 2.99 µM.

Consider `CC(C)c1ccc(Cc2ccc(C(C)C)c(NC(=O)C(=O)Cc3cnc4ccccc4n3)c2C(C)C)c(C(C)C)c1NC(=O)C(=O)Cc1cnc2ccccc2n1`, for which the TGI in [1], in assay [2], in assay [3], in assay [4], in [5] and in assay [6] was > 100 µM in each case. The TGI in assay [7], in assay [8] and in [9] was > 100 µM each time.

With `N#Cc1ccccc1Sc1ccccc1N`, the TGI in assay [1], in assay [3], in [4], in assay [10], in [5] and in assay [6] was > 100 µM each time. The TGI in assay [7], in [8] and in assay [9] was > 100 µM throughout.

On to `C[n+]1cn(CC(=O)c2ccccc2)c(C(N)=O)c1N`, for which the TGI is > 100 µM in assay [1]; 74.1 µM in assay [2]; > 100 µM in assay [3]; > 100 µM in [10]; > 100 µM in [5]; > 100 µM in assay [6]. The TGI was > 100 µM in assay [7], > 100 µM in [8] and 29.4 µM in assay [9].

Take `O=[N+]([O-])/C=C/c1ccc2ccccc2c1`: the TGI in assay [1] is 25.7 µM; in assay [3], > 21.8 µM; in [4], 9.42 µM; in [10] it was > 23.5 µM; in assay [5], 26 µM; in assay [6], > 21.2 µM. The TGI in assay [7] was 19.4 µM; in [8] it was > 100 µM; in assay [9], 3.99 µM.

On to `CCC(Oc1ccc(OC)c2c1C(=O)CCC2)C(=O)O` (configuration not stated), for which the TGI in [1], in [3], in assay [4], in assay [10], in assay [5] and in [6] was > 100 µM throughout. Moreover, the TGI in [7], in assay [8] and in assay [9] was > 100 µM each time.

On to `COc1ccccc1/C=C(\NC(=O)c1ccccc1)c1nc2ccc(Cl)cc2[nH]1`, for which the TGI in [1] is 80.9 µM; in assay [2] it was > 100 µM; in assay [3] it was > 100 µM; in assay [4], > 100 µM; in assay [10], 69.3 µM; in [5], > 100 µM. The TGI in [6] was 73 µM; in assay [8], > 100 µM; in [9] it was > 100 µM.
